The results in this text go back to patent publication EP0148096A1, “Diversely substituted 1-arylamino-3-amino-2-propanols, process for their preparation and their therapeutical application” (CORTIAL S.A., priority 1983, dated 1985).

A short description of series [1]: acute toxicity, oral administration, solution in Tween. Particulars: mouse, in vivo, souris, voie orale; for mortality: solution dans le Tween, read-out: mortalité. On the procedure: (§1) La toxicité a été déterminée chez la souris. En solution dans le Tween et après administration par voie orale le COR37 05C entraine 0 % de mortalité à 500 mg/kg, 40 % à 750 et 40 % à 1000; le COR37 06C entraine 0 % de mortalité à 100 mg/kg, 10 % à 200, 10 % à 250, 90 % à 375, 100 % à 500 (DL50 = 294 mg/kg (261-332); les COR37 09C, COR37 49C et COR37 50C entrainent 0 % de mortalité à 300 mg/kg. En solution dans le Tween et après administration par voie intrapéritonéale le COR37 05C entraine 0 % de

Series [2] is described as follows: acute toxicity, intraperitoneal administration, solution in Tween. The class given is in vivo. Particulars: mouse, in vivo, ip, souris, voie intrapéritonéale, solution dans le Tween, read-out: mortalité.
A short description of series [3]: acute toxicity, intravenous administration. Particulars: mouse, in vivo, souris, voie intraveineuse, limits (53,8 - 59,5), read-out: DL50 (the source's name). On the procedure: as §1
Par voie intraveineuse le COR37 05C présente une DL50 de 56,6 mg/kg (53,8 - 59,5).

Series [4] relates to souris soumise à une anesthésie chloroformique profonde. Put plainly: antiarrhythmic activity, mouse under deep chloroform anaesthesia. The class given is in vivo. The note with it: ip, read-out: dose active (activité antiarythmique). On the procedure: L'activité antiarythmique a été déterminée sur plusieurs modèles expérimentaux. Dans le modèle de la souris soumise à une anesthésie chloroformique profonde le COR37 05C et le COR37 06C présentent après administration intrapéritonéale une activité antiarythmique dès la dose de 25 mg/kg; le COR37 50C est actif sur ce même modèle à 100 mg/kg. Le propranolol est actif dans les mêmes conditions à la dose de 40 mg/kg et la quinidine à la dose de 100 mg/kg.

For series [5], the system named is oreillette isolée de cobaye stimulée électriquement. The series can be described thus: antiarrhythmic activity in vitro, electrically stimulated isolated guinea pig atrium. The class given is cell-based. The note with it: read-out: Ci30. The source says:
In vitro dans le modèle de l'oreillette isolée de cobaye stimulée électriquement le COR37 05C et le COR37 06C sont actifs avec des Ci30 de respectivement 6,22 (4,37-8,86) 10^-6 M/1 et 7,26.10^-6 (4,68.10^-6-1,12.10^-5) M/1 contre 10^-5 M/1 pour la procaïne, 4.10^-6 M/1 pour la quinidine et 4,5.10^-6 M/l pour le propranolol.

For series [6], the system named is arythmies induites par l'aconitine. The series can be described thus: aconitine-induced arrhythmias in the rat. The series is classed as in vivo. Particulars: for pourcentage d'animaux ne présentant pas de fibrilloflutters: voie orale. The method, then:
Ces produits ont été testés dans le modèle des arythmies induites par l'aconitine chez le rat. Les résultats sont exprimés par le pourcentage d'augmentation de la quantité d'aconitine provoquant l'apparition d'extrasystoles (E), de fibrilloflutters (F), de tachycardies (T) et de morts (M). Administrés par voie intraveineuse 1 mn avant la perfusion d'aconitine, le COR37 05C entraine à 10 mg/kg 78 % (E), 87 % (T) et 83 % (M) d'activité et le COR37 06C à 5 mg/kg entraine 45 % (E), 39 % (T) et 79 % (M) d'activité. Administrés par voie orale 45 mn avant la perfusion d'aconitine à 100 mg/kg, le COR37 05C entraine 83 % (E), 99 % (T), 43 % (F) et 107 % (M) d'activité et le COR37 06C 25 % (E), 32 % (T), 29 % (F) et 105 % (M) d'activité. De plus le pourcentage d'animaux ne présentant pas de fibrilloflutters après administration de 100 mg/kg de COR37 05C et COR37 )6C par voie orale est respectivement de 70 et 60 %.

A further series deals with cornée de cobaye. Put plainly: local anaesthetic activity, guinea pig cornea with tactile stimulus. The series is classed as in vivo. Particulars: concentration de 0,5 %. The source says: L'activité anesthésique locale a été déterminée dans le test de la cornée de cobaye soumise à un stimulus tactile. Le COR37 06C employé à la concentration de 0,5 % est actif pendant 30 mn.

Series [7] relates to plasma riche en plaquettes (PRP) de lapin. The series can be described thus: platelet aggregation in vitro induced by bovine collagen in rabbit PRP. The class given is cell-based. The note with it: 1 microg/ml, 0,05 ml de collagène bovin, read-out: inhibition de l'agrégation plaquettaire. On the procedure:
(§2) L'activité antiagrégante plaquettaire a été déterminée in vitro. Quand l'agrégation est induite par 0,05 ml d'une préparation standardisée de collagène bovin dans un plasma riche en plaquettes (PRP) de lapin, le COR37 06C entraine 100 % d'inhibition à 1 microg/ml alors que l'aspirine dans les mêmes conditions est active à 10 microg/ml et l'indométacine à 0,5 microg/ml. Dans le modèle de l'agrégation plaquettaire induite par […] d'ADP dans un PRP de lapin, à 100 microg/ml, le COR37 09C entraine 79 % d'activité, le COR37 50C entraine 80 % d'activité et l'adénosine 64 %.

The subject of another series is PRP de lapin. The series can be described thus: platelet aggregation in vitro induced by ADP in rabbit PRP. The class given is cell-based. The note with it: Oryctolagus cuniculus, 100 microg/ml, d'ADP, read-out: activité (agrégation plaquettaire induite par ADP). The method, then: as §2
For a further series, the system named is souris. The series can be described thus: acute toxicity, intraperitoneal administration, solution in Tween. The class given is in vivo. The note with it: voie intrapéritonéale, 200 mg/kg, solution dans le Tween.
Series [8] has as its system oreillette gauche de cobaye. Put plainly: calcium-antagonist activity in vitro, electrically stimulated guinea pig left atrium in low-calcium Tyrode. The class given is cell-based. Particulars: 100 Microg/ml; 150 battements/mn, Tyrode pauvre en calcium (0,6mM), addition de 0,6 mM de calcium. On the procedure:
L'activité anticalcique a été déterminée in vitro sur oreillette gauche de cobaye stimulée électriquement à 150 battements/mn dans une solution de Tyrode pauvre en calcium (0,6mM).

Where [9] appears, read: souris, anesthésie chloroformique profonde, administration intrapéritonéale.
Setting [10] is: oreillette isolée de cobaye stimulée électriquement, in vitro.
Setting [11] is: voie intraveineuse 1 mn avant la perfusion d'aconitine, 10 mg/kg.
[12] abbreviates: voie orale 45 mn avant la perfusion d'aconitine, 100 mg/kg.
Setting [13] is: voie intraveineuse 1 mn avant la perfusion d'aconitine, 5 mg/kg.

Like-named read-outs stand apart in the source and are kept apart here.

Turning to `CC(C)c1ccccc1NCC(O)CNC(C)(C)C` (centres unmarked) [COR37 05C, Dichlorhydrate de l'(isopropyl-2 anilino)-1 tertiobutylamino-3 propanol-2], the mortality in series [1] (500 mg/kg) amounted to 0%; in series [1] (750 mg/kg), 40%; in [1] (1000 mg/kg), 40%; in series [2] (200 mg/kg), 0%. In addition, the LD50 in series [3] is 56.6 mg/kg. Further, in [4] (setting [9]), the minimal effective dose worked out at 25 mg/kg. Besides, the IC30 in series [5] (setting [10]) stood at 6.22 µM. For the same compound, the “pourcentage d'augmentation de la quantité d'aconitine provoquant l'apparition d'extrasystoles (E)” value in series [6] (setting [11]) amounted to 78%; in series [6] (setting [12]) it was 83%. Moreover, the “pourcentage d'augmentation de la quantité d'aconitine provoquant l'apparition de morts (M)” value in series [6] (setting [11]) was determined as 83%; in series [6] (setting [12]), 107%. Besides, the entries for the “pourcentage d'augmentation de la quantité d'aconitine provoquant l'apparition de tachycardies (T)” value in series [6] (setting [11]) and in series [6] (setting [12]) were 87% and 99%, respectively. In [6] (setting [12]), the “pourcentage d'augmentation de la quantité d'aconitine provoquant l'apparition de fibrilloflutters (F)” value worked out at 43%. Moreover, the “pourcentage d'animaux ne présentant pas de fibrilloflutters” value in series [6] (100 mg/kg) is recorded as 70%.

Turning to `Cc1cccc(C(C)C)c1NCC(O)CNC(C)(C)C` (centres unmarked) [COR37 06C, Dichlorhydrate de l'(isopropyl-2 méthyl-6 anilino)-1 tertiobutylamino-3 propanol-2], the mortality was determined as 0% in series [1] (100 mg/kg); 10% in series [1] (200 mg/kg); 10% in series [1] (250 mg/kg); 90% in [1] (375 mg/kg); 100% in [1] (500 mg/kg); 0% in [2] (100 mg/kg). Besides, in series [2] (200 mg/kg), the mortality was found to be 100%. In [1] (limits (261-332), read-out: DL50 (the source's name)), the LD50 came to 294 mg/kg. The minimal effective dose in series [4] (setting [9]) worked out at 25 mg/kg. For the same compound, the IC30 in series [5] (setting [10]) was found to be 7.26 µM. Further, the “pourcentage d'augmentation de la quantité d'aconitine provoquant l'apparition d'extrasystoles (E)” value was 45% in [6] (setting [13]) and 25% in [6] (setting [12]). For the same compound, the “pourcentage d'augmentation de la quantité d'aconitine provoquant l'apparition de morts (M)” value is reported as 79% in series [6] (setting [13]) and 105% in series [6] (setting [12]). For the same compound, the “pourcentage d'augmentation de la quantité d'aconitine provoquant l'apparition de tachycardies (T)” value in series [6] (setting [13]) came out at 39%; in series [6] (setting [12]), 32%. The “pourcentage d'augmentation de la quantité d'aconitine provoquant l'apparition de fibrilloflutters (F)” value in series [6] (setting [12]) amounted to 29%. Further, the “pourcentage d'animaux ne présentant pas de fibrilloflutters” value in [6] (100 mg/kg) amounted to 60%. In the series on cornée de cobaye, the “durée d'activité anesthésique locale” value was 30 mn. In series [7], the inhibition at 1 µg/mL was found to be 100%.

As to `Cc1ccc(NCC(O)CNC(C)(C)C)cc1` (centres unmarked) [COR37 09C, Dichlorhydrate du (méthyl-4 anilino)-1 tertiobutylamino-3 propanol-2], the mortality in [1] (300 mg/kg) amounted to 0%; in series [2] (50 mg/kg), 0%; in series [2] (100 mg/kg) it was 100%. The inhibition at 100 µg/mL in the series with PRP de lapin came to 79%.

Turning to `Cc1cccc(C(C)C)c1NCC(O)CN(C)C` (centres unmarked) [COR37 50C, Dichlorhydrate de l' (isopropyl-2 méthyl-6 anilino)-1 diméthylamino-3 propanol-2], the mortality in series [1] (300 mg/kg) worked out at 0%. The mortalité entry in the series with souris is “aucune mortalité”. The minimal effective dose in [4] (setting [9]) came to 100 mg/kg. In the series on PRP de lapin, the inhibition at 100 µg/mL amounted to 80%. Further, the activité anticalcique entry in [8] is “inhibent l'augmentation de la force contractile”.

For the compound `Nc1ncnc2c1ncn2[C@@H]1O[C@H](CO)[C@@H](O)[C@H]1O` [adénosine, reference compound], the inhibition at 100 µg/mL with PRP de lapin is 64%.

Consider `CCN(CC)CCOC(=O)c1ccc(N)cc1` [procaïne], for which the IC30 in series [5] (setting [10]) was 10 µM.

`CC(C)NCC(O)COc1cccc2ccccc12` (centres unmarked) [propranolol, reference compound]: the minimal effective dose in series [4] came to 40 mg/kg. For the same compound, in series [5], the IC30 stood at 4.5 µM.

As for `C=C[C@H]1C[N@@]2CC[C@H]1C[C@@H]2[C@@H](O)c1ccnc2ccc(OC)cc12` [quinidine, reference compound], the minimal effective dose in [4] is 100 mg/kg. Also, the IC30 in series [5] is 4 µM.
